Test results from ChEMBL document CHEMBL5236589, “Design and Structural Optimization of Orally Bioavailable SOS1 Inhibitors for the Treatment of KRAS-Driven Carcinoma” (J Med Chem, 2022).

Tests used:
[1] = Inhibition of SOS1/KRAS G13D mutant protein-protein interaction in human DLD-1 cells assessed as ERK1/2 phosphorylation measured after 1 hr by homogeneous time-resolved fluorescence (HTRF) method; type: cell-based; conditions: DLD-1, 1 h
[2] = AUC in ICR mouse at 10 mg/kg, po by LC-MS/MS analysis; type: ADME, organism-based; parameters: dose 10 mg/kg, route po; conditions: in vivo
[3] = Elimination rate constant in ICR mouse at 10 mg/kg, po by LC-MS/MS analysis; type: ADME, organism-based; conditions: in vivo
[4] = Half life in ICR mouse at 10 mg/kg, po by LC-MS/MS analysis; type: ADME, organism-based; conditions: in vivo
[5] = Tmax in ICR mouse at 10 mg/kg, po by LC-MS/MS analysis; type: ADME, organism-based; conditions: in vivo
[6] = Cmax in ICR mouse at 10 mg/kg, po by LC-MS/MS analysis; type: ADME, organism-based; parameters: dose 10 mg/kg, route po; conditions: in vivo
[7] = MRT in ICR mouse at 10 mg/kg, po by LC-MS/MS analysis; type: ADME, organism-based; conditions: in vivo
SOS1-KRAS = SOS1-KRAS (Homo sapiens, UniProt Q07889); assay: Inhibition of human recombinant SOS1 (residue 564-1049)/KRAS G12C mutant protein-protein interaction at incubated for 25 degC for 60 mins by homogeneous time-resolved fluorescence (HTRF) method
[8] = Cmax in ICR mouse at 20 mg/kg, po by LC-MS/MS analysis; type: ADME, organism-based; parameters: dose 20 mg/kg, route po; conditions: in vivo
[9] = Half life in ICR mouse at 20 mg/kg, po by LC-MS/MS analysis; type: ADME, organism-based; conditions: in vivo; for half-life: ICR
[10] = Tmax in ICR mouse at 20 mg/kg, po by LC-MS/MS analysis; type: ADME, organism-based; conditions: in vivo
[11] = MRT in ICR mouse at 20 mg/kg, po by LC-MS/MS analysis; type: ADME, organism-based; conditions: in vivo
[12] = Elimination rate constant in ICR mouse at 20 mg/kg, po by LC-MS/MS analysis; type: ADME, organism-based; conditions: in vivo; for k el: ICR
[13] = AUC in ICR mouse at 20 mg/kg, po by LC-MS/MS analysis; type: ADME, organism-based; parameters: dose 20 mg/kg, route po; conditions: in vivo

SOS1-KRAS, sequence (Q07889 whole entry, looked up, stated change not applied): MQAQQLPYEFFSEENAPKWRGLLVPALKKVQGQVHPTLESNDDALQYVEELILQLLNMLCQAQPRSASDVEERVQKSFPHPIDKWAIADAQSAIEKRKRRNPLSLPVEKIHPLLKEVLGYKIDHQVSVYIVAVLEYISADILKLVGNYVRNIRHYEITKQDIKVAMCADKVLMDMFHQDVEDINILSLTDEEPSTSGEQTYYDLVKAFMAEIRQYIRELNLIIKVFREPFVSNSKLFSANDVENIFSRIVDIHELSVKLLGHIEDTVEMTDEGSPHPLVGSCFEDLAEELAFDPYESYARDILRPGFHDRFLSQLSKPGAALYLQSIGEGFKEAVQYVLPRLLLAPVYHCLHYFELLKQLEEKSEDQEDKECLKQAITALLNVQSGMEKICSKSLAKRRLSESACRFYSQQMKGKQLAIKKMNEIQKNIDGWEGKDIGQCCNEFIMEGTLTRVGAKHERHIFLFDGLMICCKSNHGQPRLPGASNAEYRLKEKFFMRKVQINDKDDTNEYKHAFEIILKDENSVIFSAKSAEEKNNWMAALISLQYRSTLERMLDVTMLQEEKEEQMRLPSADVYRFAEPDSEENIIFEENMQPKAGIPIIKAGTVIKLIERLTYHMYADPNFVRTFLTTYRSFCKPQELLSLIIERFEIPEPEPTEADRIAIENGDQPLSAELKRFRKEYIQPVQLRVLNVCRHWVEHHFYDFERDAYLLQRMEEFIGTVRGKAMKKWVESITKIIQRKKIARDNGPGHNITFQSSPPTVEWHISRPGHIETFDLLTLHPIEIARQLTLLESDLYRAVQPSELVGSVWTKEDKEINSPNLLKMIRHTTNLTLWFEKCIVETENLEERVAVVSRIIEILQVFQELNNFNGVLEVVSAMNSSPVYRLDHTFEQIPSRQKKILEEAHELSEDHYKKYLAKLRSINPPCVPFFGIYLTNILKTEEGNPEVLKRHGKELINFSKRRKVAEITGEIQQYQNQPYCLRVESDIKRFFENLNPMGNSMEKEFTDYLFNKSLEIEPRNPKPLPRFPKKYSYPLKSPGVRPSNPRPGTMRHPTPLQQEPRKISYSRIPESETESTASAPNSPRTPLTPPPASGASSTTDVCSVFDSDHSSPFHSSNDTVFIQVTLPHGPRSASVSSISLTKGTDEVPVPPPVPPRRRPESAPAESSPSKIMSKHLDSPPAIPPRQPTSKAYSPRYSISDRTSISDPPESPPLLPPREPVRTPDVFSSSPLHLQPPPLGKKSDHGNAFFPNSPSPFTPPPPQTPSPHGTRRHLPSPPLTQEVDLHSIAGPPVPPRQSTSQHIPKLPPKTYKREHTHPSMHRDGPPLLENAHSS

Cc1nc(N[C@H](C)c2cccc(C(F)F)c2F)c2cc3c(cc2n1)OC[C@H]1CN(C(=O)[C@@H]2CCCN2C)CCN31
IC50 [1]: 104 nM

CC(=O)N1CCN2c3cc4c(N[C@H](C)c5cccc(C(F)(F)C(C)(C)O)c5F)nc(C)nc4cc3OC[C@H]2C1
AUC [2]: 7.7 ng·h/mL | k el [3]: 3.89e-05 s⁻¹ | half-life [4]: 3.24 h | Tmax [5]: 0.625 h | Cmax [6]: 5.03 ng/mL | IC50 [1]: 10 nM | MRT [7]: 1 h | IC50 (SOS1-KRAS): 12.7 nM

Cc1nc(N[C@H](C)c2cccc(C(F)F)c2F)c2cc3c(cc2n1)OC[C@H]1CN(C(=O)C2CC2)CCN31
IC50 [1]: 367 nM

Cc1nc(N[C@H](C)c2cccc(C(F)F)c2F)c2cc3c(cc2n1)OC[C@H]1CN(c2ncc(F)cn2)CCN31
IC50 [1]: 99 nM

Cc1nc(N[C@H](C)c2cccc(C(F)F)c2F)c2cc3c(cc2n1)OC[C@H]1CN(C(=O)N2CCOCC2)CCN31
Cmax [8]: 356 ng/mL | half-life [9]: 1.78 h | Tmax [10]: 0.5 h | IC50 [1]: 9.7 nM | MRT [11]: 2.14 h | k el [12]: 0.0001 s⁻¹ | AUC [13]: 872 ng·h/mL

Cc1nc(N[C@H](C)c2cc(N)cc(C(F)(F)F)c2)c2cc3c(cc2n1)OC[C@H]1COCCN31
IC50 [1]: 38 nM | IC50 (SOS1-KRAS): 6 nM

Cc1nc(N[C@H](C)c2cccc(C(F)F)c2F)c2cc3c(cc2n1)OC[C@H]1CN(C(=O)C2CCO2)CCN31 (stereo partly drawn)
Cmax [8]: 97.1 ng/mL | t1/2 ([9]; po, 20 mg/kg): 14.3 h | Tmax [10]: 5.67 h | IC50 [1]: 16 nM | MRT [11]: 4.55 h | Kel ([12]; po, 20 mg/kg): 0.13 h⁻¹ | AUC [13]: 534 ng·h/mL

Cc1nc(N[C@H](C)c2cccc(C(F)F)c2F)c2cc3c(cc2n1)OC[C@H]1CN(C(=O)c2ccn[nH]2)CCN31
IC50 [1]: 376 nM

Cc1nc(N[C@H](C)c2cccc(C(F)F)c2F)c2cc3c(cc2n1)OC[C@H]1CN(C(=O)C2COC2)CCN31
Cmax [8]: 260 ng/mL | half-life [9]: 3.73 h | Tmax [10]: 3 h | IC50 [1]: 25 nM | MRT [11]: 4.58 h | k el [12]: 5e-05 s⁻¹ | AUC [13]: 2010 ng·h/mL

Cc1nc(N[C@H](C)c2cccc(C(F)F)c2F)c2cc3c(cc2n1)OC[C@H]1CN(C(=O)[C@@H]2C[C@@H]2F)CCN31
IC50 [1]: 22 nM

Cc1nc(N[C@H](C)c2cccc(C(F)F)c2F)c2cc3c(cc2n1)OC[C@H]1CN(C(=O)C2CC2(F)F)CCN31 (stereo partly drawn)
IC50 [1]: 26 nM

Cc1nc(N[C@H](C)c2cccc(C(F)F)c2F)c2cc3c(cc2n1)OC[C@H]1CN(C(=O)C2(C)CC2)CCN31
IC50 [1]: > 1000 nM

Cc1nc(N[C@H](C)c2cc(N)cc(C(F)(F)F)c2)c2cc3c(cc2n1)OC[C@H]1CN(C2COC2)CCN31
IC50 [1]: 45 nM | IC50 (SOS1-KRAS): 15.6 nM

Cc1nc(N[C@H](C)c2cc(N)cc(C(F)(F)F)c2)c2cc3c(cc2n1)OC[C@H]1CN(C2CCOCC2)CCN31
IC50 [1]: 48 nM | IC50 (SOS1-KRAS): 18 nM

Cc1nc(N[C@H](C)c2cccc(C(F)F)c2F)c2cc3c(cc2n1)OC[C@H]1CN(C(=O)C2CCOCC2)CCN31
Cmax [8]: 241 ng/mL | half-life [9]: 2.13 h | Tmax [10]: 0.91 h | IC50 [1]: 18 nM | MRT [11]: 2.46 h | k el [12]: 9.44e-05 s⁻¹ | AUC [13]: 646 ng·h/mL

Cc1nc(N[C@H](C)c2cccc(C(F)F)c2F)c2cc3c(cc2n1)OC[C@H]1CN(C(=O)N2CCN(C)CC2)CCN31
IC50 [1]: 99 nM

Cc1nc(N[C@H](C)c2cccc(C(F)F)c2F)c2cc3c(cc2n1)OC[C@H]1CN(C(=O)C(C)(C)C)CCN31
IC50 [1]: 25 nM

Cc1nc(N[C@H](C)c2cc(N)cc(C(F)(F)F)c2)c2cc3c(cc2n1)OC[C@H]1CN(C)CCN31
IC50 [1]: 11 nM | IC50 (SOS1-KRAS): 7.3 nM

Cc1nc(N[C@H](C)c2cccc(C(F)F)c2F)c2cc3c(cc2n1)OC[C@H]1CN(C2COC2)CCN31
IC50 [1]: 96 nM

Cc1nc(N[C@H](C)c2cccc(C(F)F)c2F)c2cc3c(cc2n1)OC[C@H]1CN(S(C)(=O)=O)CCN31
IC50 [1]: 79 nM

Cc1nc(N[C@H](C)c2cccc(C(F)F)c2F)c2cc3c(cc2n1)OC[C@H]1CN(C(=O)C2C(C)(C)C2(C)C)CCN31
IC50 [1]: 9 nM

Cc1nc(N[C@H](C)c2cccc(C(F)F)c2F)c2cc3c(cc2n1)OC[C@H]1CN(C(C)C)CCN31
IC50 [1]: 168 nM

Cc1nc(N[C@H](C)c2cccc(C(F)F)c2F)c2cc3c(cc2n1)OC[C@H]1CN(C)CCN31
IC50 [1]: 86 nM
